Test results published in US20100168033A1, “UNACYLATED GHRELIN AS THERAPEUTIC AGENT IN THE TREATMENT OF METABOLIC DISORDERS” (ALIZE PHARMA SAS, priority 2007, published 2010).
Where two headings read alike, the source gives them in different places. Non-standard residues stand in square brackets, D forms with d. No end group written: not given here.

Key:
[1] = test system: human pancreatic islets; experiment: MTT cell survival assay in human pancreatic islets; assay type: cell-based; conditions: 1 nM to 100 nM
Procedure: The survival effect of UAG (1-14), UAG (1-18), UAG (1-5) and UAG (17-28), with respect to that of full length UAG (1-28), was assessed in human pancreatic islets by MTT. The peptides were tested in islet cells cultured in serum deprived medium, either alone or with IFN-γ/TNF-α/IL-1β (5 ng/ml each).
Human islet isolation—Human islets were obtained from pancreases of multiorgan donors as described (Ref. 4). Islet preparations with purity >70%, not suitable for transplantation, were provided by European Consortium for Islet Transplantation (ECIT) “Islets for Research Distribution Program,” Transplant Unit, Scientific Institute San Raffaele, Vita-Salute University, Milan. Islets (10,000) were cultured in CMRL (Invitrogen) with 10% FBS.
(§1) Cell survival assay—Cell survival was assessed by 3-[4,5-dimethylthiazol-2-yl]-2,5 diphenyltetrazolium bromide (MTT) as described previously (Ref. 4). Cells were seeded on 96-well plates at a density of 5×10^3 cells/well. After treatments, cells were incubated with 1 mg/ml MTT for ≈1 h. The medium was aspirated, and the formazan product solubilized with 100 μl DMSO. Viability was assessed by spectrophotometry at 570 nm absorbance using a 96-well plate reader.

[2] = test system: INS-1E β-cells; experiment: MTT cell survival assay in INS-1E β-cells; assay type: cell-based, rat; conditions: peptides 0.1 nM to 100 nM
Procedure: The peptides were tested at increasing concentrations, ranging from 0.1 nM to 100 nM.
(§2) Cell culture—Hamster HIT-T15 insulin-secreting β-cells were obtained and cultured as described (Refs. 14, 4). INS-1E rat β-cells were kindly provided by Prof. Claes B. Wollheim (University Medical Center, Geneva, Switzerland) and cultured as described (Refs. 14, 4). Cell culture reagents were from Invitrogen (Milano, Italy). Cytokines were from Biosource (Invitrogen, Italy).
as §1

[3] = test system: human pancreatic islets; experiment: Insulin secretion in human pancreatic islets; assay type: cell-based; conditions: peptide 100 nM; glucose absent or 2 to 25 mM
Procedure: The effects of UAG (1-14) and UAG (1-18), both used at 100 nM, were investigated on insulin secretion in human islets. […] UAG (1-28) and Exendin-4 were used as positive controls (FIGS. 8C and 8D).

[4] = test system: HIT-T15 β-cells; assay type: cell-based; conditions: for increase of cell survival: serum-free conditions
Procedure: MTT experiments were also performed in hamster HIT-T15 β-cells, to test the survival effect of UAG (1-28) or its fragments UAG (1-14), UAG (1-18), UAG (1-5) and UAG (17-28) in serum deprived medium, either alone or with IFN-γ/TNF-α/IL-1β. As for the experiments performed on INS-1E β-cells, the peptides were tested at increasing concentrations, ranging from 0.1 nM to 100 nM.
The survival effect of UAG (6-13), UAG (8-13), UAG (8-12), UAG (8-11), UAG (9-12) and UAG (9-11) was assessed in cytokine-treated HIT-T15 β-cells.
The protective effects of peptides UAG (8-13) and UAG (8-12) were found similar to those of UAG (1-14) and UAG (1-18) A peptide made of the inverse sequence of UAG (1-14) and named UAG (14-1), was used as negative control for these experiments (FIG. 5A). […] These effects were however lower than those of UAG (6-13) (FIG. 5B).
UAG fragments with alanine (Ala) substitutions at different amino acid positions (6 to 13) were tested with regards to their survival effects in HIT-T15 hamster β-cells. The cells were cultured in serum deprived medium, either alone or with IFN-γ/TNF-α/IL-1β. The peptides were tested at the concentrations of 1 nM to 100 nM. […] Under treatment with cytokines, where cell survival was reduced by ≈18% with respect to serum starved conditions, all Ala substitutions, except those at positions 10 and 11, completely reversed cell death and brought the survival rate to levels that were even higher than those under serum-free conditions, at both 1 nM and 100 nM concentrations. These effects, were similar to those elicited by the original peptide UAG (6-13) (FIG. 11B).
Particularly, the best effect was exerted by Gly 6-UAG (6-13), whereas the lowest was seen using AcSer 6-UAG (6-13), AcSer 6-(D)Pro 7-UAG (6-13) (FIG. 12B).
as §2, §1

[5] = test system: UAG receptor on INS-1E pancreatic β-cells; experiment: [125I-Tyr4]-UAG competition binding, INS-1E membranes; design: species or system rat; conditions: for binding to the UAG receptor: INS-1E cells
Procedure: (§3) The ability of the fragment UAG (6-13) to compete in a concentration-dependent manner with [^125I-Tyr^4]-UAG for HIT-T15 (FIG. 10A) and INS-1E (FIG. 10B) binding sites was assayed. As shown in FIGS. 10A and 10B, unlabelled UAG (1-28) and UAG (6-13) competed with a similar efficacy and in a concentration-dependent fashion with [^125I-Tyr^4]-UAG for such binding sites in both cell lines.
(§4) Binding assay—Membranes from hamster HIT-T15 and rat INS-1E to pancreatic β-cells were prepared and assayed for the presence of [^125I-Tyr^4]-UAG binding. The ability of UAG fragments to compete with the radioligand for such binding sites has been evaluated as previously described (Ref. 4). Data are presented as mean±S.E.M. of three independent experiments.

[6] = test system: UAG receptor on HIT-T15 pancreatic β-cells; experiment: [125I-Tyr4]-UAG competition binding, HIT-T15 membranes; design: species or system hamster; conditions: for binding to the UAG receptor: HIT-T15 cells
Procedure: as §3, §4

[7] = test system: Streptozotocin (STZ)-treated animals; experiment: Streptozotocin (STZ)-treated neonatal rats, diabetes model; assay type: in vivo, rat; conditions: for animal survival rate: day 9 after STZ
Source text: Natural birth occurred 6-7 days later. […] Pups were left with their mothers.
Pancreas removal and treatment—After excision, pancreases were removed and weighed.

[8] = test system: HIT-T15 β-cells; experiment: Apoptosis in cytokine-treated HIT-T15 β-cells; assay type: cell-based, hamster; conditions: for cytokine-induced apoptosis: 24 h serum-free medium with IFN-γ/TNF-α/IL-1β, peptides 1, 10, 100 nM
Procedure: HIT-T15 β-cells were cultured for 24 h in serum-free medium, either alone or with IFN-γ/TNF-α/IL-1β. In both cell lines, apoptosis increased under cytokine treatment, with respect to serum starvation alone. […] UAG (14-1), the inverse sequence of UAG (1-14), was used as negative control, whereas UAG (1-28), was used as positive control in each experiment.

[9] = test system: ob/ob mice; experiment: ob/ob mice, 4-week intraperitoneal pump infusion; assay type: in vivo, mouse
Procedure: Baseline tail vein plasma samples were collected from free-fed and 16 h fasted ob/ob mice 7 and 6 days before pump implantation into K2EDTA coated capillary tubes (Microvette CB300 K2E; Sarstedt, Germany). The animals were then separated into three groups with approximately equivalent weight ranges. Ten week old mice were anesthetized, and a filled Alzet 1004 pump was inserted, delivery portal first, into the peritoneal cavity. The musculoperitoneal and skin layers were then closed using interrupted sutures (Vicryl 5.0 FS-2 absorbable suture). Animals received pumps containing either saline, 10 mg/ml UAG, or 3.5 mg/mL UAG (6-13) (n=8 per group). Alzet 1004 pumps deliver […], and infused 30 μg of hUAG/animal/day (˜600 μg/kg/day) and 10 μg of UAG (6-13)/animal/day (˜200 μg/kg/day).
Blood samples (at 0900-1000) were obtained from fed and fasted animals at weeks 2 and 4 via the tail vein into EDTA Microvette tubes. Glucose levels in tail vein blood were measured directly using a glucometer. On the last day of treatment baseline (fasted) blood samples were taken.
For the experimental data illustrated in FIGS. 14A, 14B, 15 and 16, the animals were obtained from Charles River Laboratories (Maastricht, The Netherlands). Animals (B6.V-Lep^ob/J, Charles River Laboratories, Belgian colony) were received in our animal facilities at 8 weeks of age, and acclimatized in individual cages for 2 weeks before treatments began. They were maintained under standard 12:12 h light:dark conditions, 21° C., and were allowed free access to food and water. The animals were also handled daily to accustom them to the method used for blood collection. The peptides were dissolved in sterile, nonpyrogenic, 0.9% saline (Baxter BV, Utrecht, The Netherlands). D-glucose was obtained from Sigma-Aldrich Chemie BV (Zwijndrecht, The Netherlands), and was dissolved at 400 mg/ml in 0.9% saline. Alzet pumps (model 1004) were obtained from Charles River Laboratories (Maastricht, The Netherlands). Pumps were filled with 0.9% saline, UAG or UAG (6-13) solution under sterile conditions, and pre-incubated in 0.9% saline for at least 48 hours at 37° C. to initiate flow. Blood glucose levels were measured directly from tail vein incisions using a Freestyle mini glucometer and test strips (ART05214 Rev.A; Abbot, Amersfoort, The Netherlands). Plasma insulin levels were assayed by Ultra-sensitive mouse insulin ELISA (Cat. #10-1150-10; Mercodia, Sweden).

[10] = serum deprived medium with IFN-γ/TNF-α/IL-1β
[11] = serum deprived medium with IFN-γ/TNF-α/IL-1β (5 ng/ml each)

GSSFLSPEHQRVQQRKES [UAG (1-18)]
cell survival (MTT) ([1]; serum deprived medium alone): significantly increased cell survival at 1 nM and 10 nM
cell survival (MTT) [2, 10]: more potent than full length UAG (1-28)
cell survival (MTT) ([2]; serum-free medium): significant survival effect, comparable to that of UAG (1-28)
insulin secretion [3]: significant effect with 7.5 mM glucose
cell survival (MTT) ([4]; serum deprived medium alone): significantly increased cell viability
cell survival (MTT) [4, 10]: significantly increased cell viability

Gly-Pro-Glu-His-Gln-Arg-Val-Gln-NH2 (GPEHQRVQ-NH2; listed as Homo sapiens) [Gly 6-UAG (6-13)]
cell survival (MTT) [4, 10]: best effect

Ac-Ser-Pro-Glu-His-Gln-Arg-Val-Gln-NH2 (Ac-SPEHQRVQ-NH2; listed as Homo sapiens) [AcSer 6-UAG (6-13)]
cell survival (MTT) [4, 10]: lowest

Ac-Ser-pro-Glu-His-Gln-Arg-Val-Gln-NH2 (Ac-S[dP]EHQRVQ-NH2; listed as Homo sapiens) [AcSer 6-(D)Pro 7-UAG (6-13)]
cell survival (MTT) [4, 10]: lowest

UAG (1-13): UAG fragment named only in b93 as binding to the UAG receptor; no sequence listed (GSSFLSPEHQRVQ)
binding to the UAG receptor [5]: recognized and bound to the UAG receptor
binding to the UAG receptor [6]: recognized and bound to the UAG receptor

His-Gln-Arg-Val (HQRV; listed as Homo sapiens) [UAG (9-12)]
cell survival (MTT) [4, 10]: significantly increased cell survival at both the concentrations tested

SPEHQRVQ [UAG (6-13), Ser-Pro-Glu-His-Gln-Arg-val-Gln]
animal survival rate ([7]; 30 nmol/l): ≈ 71%
animal survival rate ([7]; 100 nmol/l): 89%
reduction of plasma glucose vs. STZ group ([7]; day 70, 30 nmol/l): 31%
reduction of plasma glucose vs. STZ group ([7]; day 70, 100 nmol/l): 14%
plasma insulin levels ([7]; day 70, STZ-treated rats, UAG (6-13) at both concentrations): increasing insulin levels
cytokine-induced apoptosis [8]: significantly reduced cytokine-induced apoptosis
cell number and morphology ([8]; with respect to cytokine condition, data not shown): increased the number of cells, induced cell enlargement and small islets formation
binding to the UAG receptor [5]: highest binding activity
IC50 ([5]; INS-1E membranes, mean±S.E.M. of three experiments): 2.4 ± 0.3 nM
suppressive effect on plasma glucose levels in fed animals ([9]; fed animals, relative to saline controls): 30-40%
fed plasma glucose levels ([9]; fed animals, relative to saline controls, not statistically significant (RM-ANOVA)): consistent suppressive effect
gonadal fat weight ([9]; over the period of treatment): did not cause an increase in gonadal fat weight
decrease of gonadal fat pad weight relative to saline treated controls ([9]; period of treatment, trend p<0.06): approximately 7%
binding to the UAG receptor [6]: highest binding activity
IC50 ([6]; HIT-T15 membranes, mean±S.E.M. of three experiments): 3.8 ± 0.3 nM
increase of cell survival ([4]; peptide 1 nM): ≈ 18%
increase of cell survival ([4]; peptide 100 nM): ≈ 30%

EHQRVQ [UAG (8-13)]
cytokine-induced apoptosis [8]: significantly inhibited apoptosis at 10 and 100 nM

Gly-Ser-Ser-Phe-Leu (GSSFL; listed as Homo sapiens) [UAG (1-5)]
cell survival (MTT) ([1]; serum deprived medium alone): little, although significant survival action at 10 nM
cell survival (MTT) [1, 11]: no cell protection
cell survival (MTT) [2, 10]: reduced effect
cell survival (MTT) ([2]; serum-free medium): reduced, although significant, survival action
cell survival (MTT) [4, 10]: slightly increased cell survival

Glu-His-Gln-Arg (EHQR; listed as Homo sapiens) [UAG (8-11)]
cell survival (MTT) [4, 10]: significant survival effect only at 100 nM

His-Gln-Arg [UAG (9-11)]
cell survival (MTT) [4, 10]: no significant effect at both concentrations tested

ESKKPPAKLQPR [UAG (17-28)]
cell survival (MTT) ([1]; serum deprived medium alone): significantly increased survival of islet cells
cell survival (MTT) [1, 11]: had no effect
cell survival (MTT) [2, 10]: reduced effect
cell survival (MTT) ([2]; serum-free medium): reduced, although significant, survival action
cell survival (MTT) ([4]; serum deprived medium alone): no significant effect
cell survival (MTT) [4, 10]: no significant effect

Glu-His-Gln-Arg-Val (EHQRV; printed: Glu-His-Gln-Arg-Val) [UAG (8-12)]
cytokine-induced apoptosis [8]: some protective effect only at 100 nM
